≈ marks a conversion by molar mass, not a printed value.

One data set has as its target T1, Ketohexokinase (Homo sapiens, UniProt P50053).
T1 sequence (P50053 whole entry): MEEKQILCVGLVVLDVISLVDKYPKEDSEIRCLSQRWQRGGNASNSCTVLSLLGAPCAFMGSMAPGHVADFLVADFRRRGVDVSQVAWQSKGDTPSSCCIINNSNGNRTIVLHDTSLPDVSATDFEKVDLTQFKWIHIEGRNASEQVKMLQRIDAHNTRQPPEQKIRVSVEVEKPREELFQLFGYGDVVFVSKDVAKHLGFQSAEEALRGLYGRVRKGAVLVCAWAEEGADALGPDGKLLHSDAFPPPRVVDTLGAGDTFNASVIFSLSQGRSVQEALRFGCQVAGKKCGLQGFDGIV
Test: not given
Details: not given
A word on the IC50: it is the concentration at which inhibition is half-maximal. The low end stands for greater potency in that assay, the high end for weaker potency in that assay. Regarding `C[C@H]1CCN1c1nc(N2C[C@@H](CC(=O)O)[C@H](O)C2)cc(C(F)(F)F)c1C#N` (racemic), 138 nM corresponded to half-maximal inhibition (IC50).

The compound `O=C(O)CC[C@H]1CCN(c2nc(N3CC[C@@H]3C(F)(F)F)nc3c2CCC3(F)F)C1` gave an IC50 of 25.9 nM. This IC50 lies about 5.3-fold lower than the previous one.

In turn, `C[C@H]1CCN1c1nc(N2CC[C@H](OCC(=O)O)C2)c2c(n1)C(F)(F)CC2` displayed an IC50 of 53.9 nM.

`C[C@H]1CCN1c1nc(N2CC[C@H](CC(=O)O)C2)c2c(n1)C(F)(F)CC2` yielded a 50% inhibitory concentration (IC50) of 49 nM.

Regarding `C[C@H]1CCN1c1nc(N2CC(CC(=O)O)C(F)(F)C2)cc(C(F)(F)F)c1C#N` (some centres not stated), the midpoint of inhibition, the IC50, lay at 108 nM. This IC50 lies about 2.2-fold higher than the previous one.

In the case of `C[C@H]1CCN1c1nc(N2C[C@H]3CC[C@H](C(=O)O)[C@H]3C2)c2c(n1)C(F)(F)CC2` (racemic), the IC50 is 34.7 nM.

For the compound `O=C(O)CC[C@H]1CCN(c2nc(N3CC4CCCC43)nc3c2CCC3(F)F)C1` (some centres not stated), the IC50 is > 1000 nM.

`C[C@H]1CCN1c1nc(N2CCC3(CC3C(=O)O)C2)cc(C(F)(F)F)n1` (some centres not stated): the IC50 is > 1000 nM.

`C[C@H]1CCN1c1nc(N2C[C@H]3CC[C@H](C(=O)O)[C@H]3C2)cc(C(F)(F)F)c1C#N` (racemic): the IC50 came to 21.9 nM. That is a double-digit nanomolar value.

In turn, `C[C@H]1CCN1c1nc(N2CC[C@H](CCC(=O)O)C2)cc(C(F)(F)F)n1` registered an IC50 of 849 nM.

For `C[C@H]1CCN1c1nc(N2CCC(C)(CC(=O)O)C2)cc(C(F)(F)F)c1C#N` (some centres not stated), the IC50 was > 1000 nM.

The compound `C[C@H]1CCN1c1nc(N2CC[C@H](CCC(=O)O)C2)c2c(n1)C(F)(F)CCC2` returned an IC50 of 89.5 nM.

In turn, `C[C@H]1CCN1c1nc(N2CCC3(CC3C(=O)O)C2)cc(C(F)(F)F)c1C#N` (some centres not stated) had an IC50 of 108 nM.

System in another data set: not given
Test: not given
Details: not given
On to `O=C(O)CC[C@H]1CCN(c2nc(N3CC4CCCC43)nc3c2CCC3(F)F)C1` (some centres not stated), for which the Kinetic_solubility result was “Not Determined(Insoluble)”.

On to `C[C@H]1CCN1c1nc(N2CCC3(CC3C(=O)O)C2)cc(C(F)(F)F)n1` (some centres not stated), for which the Kinetic_solubility result was “Not Determined(Insoluble)”.

As for `C[C@H]1CCN1c1nc(N2CC[C@H](CCC(=O)O)C2)cc(C(F)(F)F)n1`, the Kinetic_solubility entry is recorded as “Not Determined(Insoluble)”.

As to `C[C@H]1CCN1c1nc(N2CCC(C)(CC(=O)O)C2)cc(C(F)(F)F)c1C#N` (some centres not stated), the Kinetic_solubility result is given as “Not Determined(Insoluble)”.

Consider `C[C@H]1CCN1c1nc(N2CC[C@H](CCC(=O)O)C2)c2c(n1)C(F)(F)CCC2`, for which the Kinetic_solubility entry is reported as “Not Determined(Insoluble)”.

System in the next data set: not listed separately
The data set can be described thus: physchem.
Details: not given
As a reminder, the kinetic solubility is the concentration staying in solution when a stock, usually in DMSO, is diluted into the medium. `C[C@H]1CCN1c1nc(N2C[C@@H](CC(=O)O)[C@H](O)C2)cc(C(F)(F)F)c1C#N` (racemic) returned a kinetic solubility of 889 µM (≈ 342 µg/mL).

Regarding `O=C(O)CC[C@H]1CCN(c2nc(N3CC[C@@H]3C(F)(F)F)nc3c2CCC3(F)F)C1`, the solubility (kinetic) was > 1000 µM.

In the case of `C[C@H]1CCN1c1nc(N2CC[C@H](OCC(=O)O)C2)c2c(n1)C(F)(F)CC2`, the solubility (kinetic) is > 1000 µM.

Regarding `C[C@H]1CCN1c1nc(N2CC[C@H](CC(=O)O)C2)c2c(n1)C(F)(F)CC2`, the solubility (kinetic) was 999 µM (≈ 352 µg/mL).

In the case of `C[C@H]1CCN1c1nc(N2CC(CC(=O)O)C(F)(F)C2)cc(C(F)(F)F)c1C#N` (some centres not stated), the kinetic solubility was > 1000 µM.

Take `C[C@H]1CCN1c1nc(N2C[C@H]3CC[C@H](C(=O)O)[C@H]3C2)c2c(n1)C(F)(F)CC2` (racemic): the kinetic solubility is > 1000 µM.

On to `C[C@H]1CCN1c1nc(N2C[C@H]3CC[C@H](C(=O)O)[C@H]3C2)cc(C(F)(F)F)c1C#N` (racemic), for which the solubility (kinetic) came out at 230 µM (≈ 90.5 µg/mL).

As to `C[C@H]1CCN1c1nc(N2CCC3(CC3C(=O)O)C2)cc(C(F)(F)F)c1C#N` (some centres not stated), the solubility (kinetic) was > 1000 µM.

System in a further data set: not listed separately
The data set can be described thus: physchem. Conditions: buffer, pH 7.4.
For orientation: logD means lipophilicity at a set pH, counting ionised and neutral species. A lower logD goes with lower lipophilicity. `C[C@H]1CCN1c1nc(N2C[C@@H](CC(=O)O)[C@H](O)C2)cc(C(F)(F)F)c1C#N` (racemic) registered a logD of 0.93.

`O=C(O)CC[C@H]1CCN(c2nc(N3CC[C@@H]3C(F)(F)F)nc3c2CCC3(F)F)C1` had a logD of 0.86.

Turning to `C[C@H]1CCN1c1nc(N2CC[C@H](OCC(=O)O)C2)c2c(n1)C(F)(F)CC2`, the logD is -1.1.

The compound `C[C@H]1CCN1c1nc(N2CC[C@H](CC(=O)O)C2)c2c(n1)C(F)(F)CC2` came in with a logD of 0.01.

`C[C@H]1CCN1c1nc(N2CC(CC(=O)O)C(F)(F)C2)cc(C(F)(F)F)c1C#N` (some centres not stated): the logD was 1.48.

Take `C[C@H]1CCN1c1nc(N2C[C@H]3CC[C@H](C(=O)O)[C@H]3C2)c2c(n1)C(F)(F)CC2` (racemic): the logD was 0.58.

Compound `C[C@H]1CCN1c1nc(N2C[C@H]3CC[C@H](C(=O)O)[C@H]3C2)cc(C(F)(F)F)c1C#N` (racemic) gave a logD of 2.31.

`C[C@H]1CCN1c1nc(N2CCC3(CC3C(=O)O)C2)cc(C(F)(F)F)c1C#N` (some centres not stated) registered a logD of 1.73.

System in the next data set: not listed separately
The experiment in a line: in vitro. Conditions: human, Caco-2.
Description: Apparent permeability of the compound across apical side to basolateral side in human Caco-2 cells at 10 uM incubated for 2 hrs by LC-MS/MS analysis
As a reminder, the Papp A→B is the apparent permeability from the apical to the basolateral side of a cell layer. A lower Papp A→B goes with poor permeation. Regarding `C[C@H]1CCN1c1nc(N2C[C@@H](CC(=O)O)[C@H](O)C2)cc(C(F)(F)F)c1C#N` (racemic), the Papp A→B at 2 h, 10 µM was 0.09 ×10⁻⁶ cm/s.

The compound `O=C(O)CC[C@H]1CCN(c2nc(N3CC[C@@H]3C(F)(F)F)nc3c2CCC3(F)F)C1` showed a Papp A→B at 2 h, 10 µM of 5.14 ×10⁻⁶ cm/s.

Regarding `C[C@H]1CCN1c1nc(N2CC[C@H](OCC(=O)O)C2)c2c(n1)C(F)(F)CC2`, the Papp A→B at 2 h, 10 µM was 0.23 ×10⁻⁶ cm/s.

`C[C@H]1CCN1c1nc(N2CC[C@H](CC(=O)O)C2)c2c(n1)C(F)(F)CC2` showed a Papp A→B at 2 h, 10 µM of 1.47 ×10⁻⁶ cm/s.

Turning to `C[C@H]1CCN1c1nc(N2CC(CC(=O)O)C(F)(F)C2)cc(C(F)(F)F)c1C#N` (some centres not stated), the Papp A→B at 2 h, 10 µM was 10.9 ×10⁻⁶ cm/s.

Take `C[C@H]1CCN1c1nc(N2C[C@H]3CC[C@H](C(=O)O)[C@H]3C2)c2c(n1)C(F)(F)CC2` (racemic): the Papp A→B at 2 h, 10 µM was found to be 6.13 ×10⁻⁶ cm/s.

`C[C@H]1CCN1c1nc(N2C[C@H]3CC[C@H](C(=O)O)[C@H]3C2)cc(C(F)(F)F)c1C#N` (racemic) registered a Papp A→B at 2 h, 10 µM of 18.3 ×10⁻⁶ cm/s. This Papp A→B at 2 h, 10 µM is about 3-fold higher than that of the compound before.

Consider `C[C@H]1CCN1c1nc(N2CCC3(CC3C(=O)O)C2)cc(C(F)(F)F)c1C#N` (some centres not stated), for which the Papp A→B at 2 h, 10 µM was 16.2 ×10⁻⁶ cm/s.

System in another data set: not listed separately
The experiment in a line: in vitro. Conditions: human, Caco-2. This is another data set of the same source.
Description: Efflux ratio of apparent permeability across basolateral to apical membrane over apical to basolateral membrane in human Caco-2 cells
What is called efflux ratio is a quotient of directional permeabilities that is used to spot active efflux. On to `C[C@H]1CCN1c1nc(N2C[C@@H](CC(=O)O)[C@H](O)C2)cc(C(F)(F)F)c1C#N` (racemic), for which the efflux ratio worked out at 218.

With `O=C(O)CC[C@H]1CCN(c2nc(N3CC[C@@H]3C(F)(F)F)nc3c2CCC3(F)F)C1`, the efflux ratio is 7.81.

Turning to `C[C@H]1CCN1c1nc(N2CC[C@H](OCC(=O)O)C2)c2c(n1)C(F)(F)CC2`, the efflux ratio turned out to be 19.9.

Regarding `C[C@H]1CCN1c1nc(N2CC[C@H](CC(=O)O)C2)c2c(n1)C(F)(F)CC2`, the efflux ratio was 11.2.

For `C[C@H]1CCN1c1nc(N2CC(CC(=O)O)C(F)(F)C2)cc(C(F)(F)F)c1C#N` (some centres not stated), the efflux ratio is 2.48.

On to `C[C@H]1CCN1c1nc(N2C[C@H]3CC[C@H](C(=O)O)[C@H]3C2)c2c(n1)C(F)(F)CC2` (racemic), for which the efflux ratio was found to be 4.54.

Regarding `C[C@H]1CCN1c1nc(N2C[C@H]3CC[C@H](C(=O)O)[C@H]3C2)cc(C(F)(F)F)c1C#N` (racemic), the efflux ratio amounted to 1.13.

Take `C[C@H]1CCN1c1nc(N2CCC3(CC3C(=O)O)C2)cc(C(F)(F)F)c1C#N` (some centres not stated): the efflux ratio was determined as 1.78.

System in a further data set: not listed separately
The experiment in a line: in vitro. Conditions: rat, liver microsomes.
Usually microsomal CLint stands for the rate of metabolic loss divided by the concentration. A low value points to greater metabolic stability. Compound `O=C(O)CC[C@H]1CCN(c2nc(N3CC[C@@H]3C(F)(F)F)nc3c2CCC3(F)F)C1` returned a microsomal CLint at 2 h, 1 µM of 64.6 µL/min/mg.

Take `C[C@H]1CCN1c1nc(N2CCC3(CC(C(=O)O)C3)C2)cc(C(F)(F)F)c1C#N` (some centres not stated): the microsomal CLint at 2 h, 1 µM came out at 4.5 µL/min/mg.

As for `C[C@H]1CCN1c1nc(N2CCC3(CC3C(=O)O)C2)cc(C(F)(F)F)c1C#N` (some centres not stated), the intrinsic clearance (microsomal CLint) at 2 h, 1 µM came to 5.6 µL/min/mg.

System in the next data set: not listed separately
The experiment in a line: in vitro. Conditions: dog, liver microsomes.
With `C[C@H]1CCN1c1nc(N2CCC3(CC(C(=O)O)C3)C2)cc(C(F)(F)F)c1C#N` (some centres not stated), the microsomal CLint at 2 h, 1 µM was 5.5 µL/min/mg.

System in a further data set: not listed separately
The data set can be described thus: in vitro. Conditions: human, liver microsomes. A general note: Liver microsomes are a subcellular fraction often used to study metabolism.
`C[C@H]1CCN1c1nc(N2CCC3(CC(C(=O)O)C3)C2)cc(C(F)(F)F)c1C#N` (some centres not stated) had a microsomal CLint at 2 h, 1 µM of 6.2 µL/min/mg.

`C[C@H]1CCN1c1nc(N2C[C@H]3CC[C@H](C(=O)O)[C@H]3C2)cc(C(F)(F)F)c1C#N` (racemic) gave a microsomal CLint at 2 h, 1 µM of 10.4 µL/min/mg.

The compound `C[C@H]1CCN1c1nc(N2CCC3(CC3C(=O)O)C2)cc(C(F)(F)F)c1C#N` (some centres not stated) returned a microsomal CLint at 2 h, 1 µM of 4.6 µL/min/mg.

The values above are taken from ChEMBL document CHEMBL5365534, “Discovery of a Novel Ketohexokinase Inhibitor with Improved Drug Distribution in Target Tissue for the Treatment of Fructose Metabolic Disease” (J Med Chem, 2023).
